Experimental data: US20230183323A1 (BROWN UNIVERSITY, priority 2020, published 2023)
Structures can show the parent of a compound that is named as a salt.

Columns and labels:
[1] = biological target: CDK1 (Homo sapiens, UniProt P06493); settings: cited from earlier work
[2] = biological target: CDK2 (Homo sapiens, UniProt P24941); settings: cited from earlier work
[3] = biological target: CDK3 (Homo sapiens, UniProt Q00526); settings: cited from earlier work
[4] = biological target: CDK4 (Homo sapiens, UniProt P11802); settings: cited from earlier work
[5] = biological target: CDK6 (Homo sapiens, UniProt Q00534); set-up: key to the marks not given beside the values; settings: cited from earlier work
[6] = biological target: CDK7 (Homo sapiens, UniProt P50613); set-up: key: + is used to indicate the potency of the inhibitor; ++++ > +++ > ++ > +; + is used to indicate the potency of the inhibitor; ++++ > +++ > ++ > +; + is used to indicate the potency of the inhibitor; ++++ > +++ > ++ > +; + is used to indicate the potency of the inhibitor; ++++ > +++ > ++ > +; ◯ refers to compounds with inhibitory effects on the related isoform, but without specific value; settings: cited from earlier work
[7] = system: ACE2, TMPRSS2, CTSL, and FURIN mRNA in Calu-3 lung epithelial cells; assay: RT-PCR of basal and CHI3L1 regulated expression in Calu-3 cells transfected with CHI3L1 cDNA, with flavopiridol; type: cell-based, human; settings: 24 hours
Method: After transfection of the cells with empty vector (pcDNA) or full length CHI3L1 cDNA, the Calu-3 cells were incubated with flavopiridol (25 nM) or its vehicle control for 24 hours. Levels of mRNA encoding ACE2 (top left), TMPRSS2 (top right), CTSL (bottom left), and FURIN (bottom right) were assessed via RT-PCR. *p<0.05; **p<0.01 (Student's t-test).
(§1) Total cellular RNA was obtained using TRIzol reagent (ThermoFisher Scientific) followed by RNA extraction using RNeasy Mini Kit (Qiagen, Germantown, Md.) according to the manufacturer's instructions. mRNA was measured and used for real time (RT)-PCR as described previously.^55,56 The primer sequences used in these studies are summarized in Table 1. Ct values of the test genes were normalized to the internal housekeeping gene β-actin.
The next study assessed whether the inhibition of CHI3L1 phosphorylation wound result in similar effects observed with CHI3L1 inhibitors on the levels of mRNA encoding ACE2 and spike activating proteases (SAPs), namely FURIN, TMPRSS2, and CTSL, in Calu-3 cells (described in Example 1).

[8] = system: serine phosphorylation of CHI3L1 in U87 cells; assay: Co-IP/Immunoblot of CHI3L1 phosphorylation in U87 cells; type: cell-based; settings: flavopiridol 50 nM unless otherwise indicated, time-dependent and dose-dependent
Method: U87 cells that endogenously express all components of chitosome were subjected to Co-IP/Immunoblot assays after Pan-CDK inhibitor flavopiridol treatment. Flavopiridol was used at 50 nM unless otherwise indicated. Hr, hours.

[9] = biological target: CDK8 (Homo sapiens, UniProt P49336); set-up: key: + is used to indicate the potency of the inhibitor; ++++ > +++ > ++ > +; + is used to indicate the potency of the inhibitor; ++++ > +++ > ++ > +; + is used to indicate the potency of the inhibitor; ++++ > +++ > ++ > +; + is used to indicate the potency of the inhibitor; ++++ > +++ > ++ > +; ◯ refers to compounds with inhibitory effects on the related isoform, but without specific value; settings: cited from earlier work
[10] = biological target: CDK9 (Homo sapiens, UniProt P50750); set-up: key: + is used to indicate the potency of the inhibitor; ++++ > +++ > ++ > +; + is used to indicate the potency of the inhibitor; ++++ > +++ > ++ > +; + is used to indicate the potency of the inhibitor; ++++ > +++ > ++ > +; + is used to indicate the potency of the inhibitor; ++++ > +++ > ++ > +; ◯ refers to compounds with inhibitory effects on the related isoform, but without specific value; settings: cited from earlier work
[11] = system: ACE2, TMPRSS2, and CTSL mRNA in A549 cells; assay: qRT-PCR of mRNA levels in A549 cells incubated with rhCHI3L1; type: cell-based, human; settings: 24 hr
Method: as §1
In the first study, A549 cells were incubated with rhCHI3L1 from a commercial source (R&D Inc.) and rhCHI3L1 generated at Brown University (Brown). The cells were incubated for 24 hr with stimulation of rhCHI3L1 (500 ng/mL) at 37° C. mRNA was then extracted and the levels of mRNA for ACE2 and CTSL were evaluated by real time qRT-PCR and compared to vehicle controls. Levels were expressed in relationship to GAPDH controls.
In the next study, A549 cells were incubated with 0, 250 ng/mL, or 500 ng/mL of rhCHI3L1 for 24 hr with stimulation of rhCHI3L1 at 37° C. mRNA was then extracted and the levels of mRNA encoding ACE2, TMPRSS2, and CTSL were assessed via qRT-PCR.

[12] = system: ACE2, TMPRSS2, and CTSL mRNA in normal human small airway epithelial cells (HSAEC); assay: qRT-PCR of mRNA levels in HSAEC incubated with rhCHI3L1; type: cell-based; settings: rhCHI3L1 500 ng/mL, 24 hours
Method: as §1
In the present study, normal HSAEC were incubated with 0, 100 ng/mL, or 500 ng/mL of rhCHI3L1 for 24 hours at 37° C. The levels of mRNA encoding ACE2, TMPRSS2, and CTSL were assessed via qRT-PCR and expressed in relationship to GAPDH controls.

[13] = system: ACE2, FURIN, TMPRSS2, and CTSL mRNA in Calu-3 lung epithelial cells; assay: RT-PCR of basal and rhCHI3L1 regulated expression in Calu-3 cells with FRG or KSM; type: cell-based, human; settings: Calu-3 cells, rhCHI3L1 250 ng/mL, 24 hours
Method: Calu-3 cells were incubated with vehicle or rhCHI3L1 for 24 hours in the presence of KSM (250 ng/mL) or its vehicle control (PBS). Levels of mRNA encoding ACE2 (top left), FURIN (top right), TMPRSS2 (bottom left), and CTSL (bottom right) were assessed via RT-PCR. KSM diminished the levels of basal ACE2 expression and potently ameliorated the ability of rhCHI3L1 to stimulate ACE2 mRNA accumulation.
as §1
Calu-3 cells were incubated with vehicle or 250 ng/mL rhCHI3L1 for 24 hours in the presence of 250 ng/mL FRG or its isotype control (isotype) at 37° C. Levels of mRNA encoding ACE2, FURIN, TMPRSS2, and CTSL were assessed via RT-PCR.
Kasugamycin (KSM) is an inhibitor of CHI3L1 and chitinase 1. The present study assessed the effects of KSM on the levels of mRNA encoding ACE2, FURIN, TMPRSS2, and CTSL in Calu-3 cells.

[14] = system: spike protein (S)-containing pseudovirus (D614 and G614 variants); type: cell-based; settings: Calu-3 cells, rCHI3L1 24 hours before pseudovirus
[15] = Calu-3 cells, pcDNA or CHI3L1 cDNA, flavopiridol 25 nM

Chain of CDK7 (P51946 whole entry, canonical isoform): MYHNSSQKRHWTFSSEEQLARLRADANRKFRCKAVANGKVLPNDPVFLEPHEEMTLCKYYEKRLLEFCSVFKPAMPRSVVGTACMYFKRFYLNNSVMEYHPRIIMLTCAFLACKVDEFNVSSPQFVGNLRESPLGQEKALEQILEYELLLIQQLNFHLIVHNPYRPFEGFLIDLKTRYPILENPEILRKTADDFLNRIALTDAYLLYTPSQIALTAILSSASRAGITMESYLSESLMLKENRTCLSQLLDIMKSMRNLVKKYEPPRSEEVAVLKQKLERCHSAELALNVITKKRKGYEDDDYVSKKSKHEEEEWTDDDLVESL
Chain of CDK7 (P50613 whole entry, canonical isoform): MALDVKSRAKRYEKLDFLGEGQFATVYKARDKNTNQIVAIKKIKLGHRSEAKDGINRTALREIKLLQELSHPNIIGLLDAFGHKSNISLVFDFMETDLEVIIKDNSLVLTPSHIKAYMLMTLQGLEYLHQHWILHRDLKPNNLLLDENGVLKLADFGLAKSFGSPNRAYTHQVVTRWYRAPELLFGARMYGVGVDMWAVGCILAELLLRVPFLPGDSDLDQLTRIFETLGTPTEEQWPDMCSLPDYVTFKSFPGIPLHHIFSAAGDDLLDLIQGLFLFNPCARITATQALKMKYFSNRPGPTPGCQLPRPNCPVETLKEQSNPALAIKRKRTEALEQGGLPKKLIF
Chain of CDK7 (P51948 whole entry, further chain, canonical isoform): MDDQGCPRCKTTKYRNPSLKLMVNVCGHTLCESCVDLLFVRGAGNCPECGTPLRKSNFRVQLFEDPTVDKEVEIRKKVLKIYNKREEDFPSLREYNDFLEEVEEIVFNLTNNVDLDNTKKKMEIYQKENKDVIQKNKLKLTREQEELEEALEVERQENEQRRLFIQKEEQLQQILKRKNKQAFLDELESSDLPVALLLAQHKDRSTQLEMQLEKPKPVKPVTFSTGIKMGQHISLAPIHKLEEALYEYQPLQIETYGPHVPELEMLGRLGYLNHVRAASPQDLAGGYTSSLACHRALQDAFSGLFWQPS
Chain of CDK1 (P06493 whole entry, species assumed): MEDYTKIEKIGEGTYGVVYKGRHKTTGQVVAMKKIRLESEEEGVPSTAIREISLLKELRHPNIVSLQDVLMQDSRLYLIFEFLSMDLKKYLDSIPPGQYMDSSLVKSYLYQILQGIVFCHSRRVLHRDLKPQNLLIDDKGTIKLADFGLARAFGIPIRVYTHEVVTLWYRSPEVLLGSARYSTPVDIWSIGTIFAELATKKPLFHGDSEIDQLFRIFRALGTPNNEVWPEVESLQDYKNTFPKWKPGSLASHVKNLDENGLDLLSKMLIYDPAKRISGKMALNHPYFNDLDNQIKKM
Chain of CDK1 (P14635 whole entry partner, species assumed): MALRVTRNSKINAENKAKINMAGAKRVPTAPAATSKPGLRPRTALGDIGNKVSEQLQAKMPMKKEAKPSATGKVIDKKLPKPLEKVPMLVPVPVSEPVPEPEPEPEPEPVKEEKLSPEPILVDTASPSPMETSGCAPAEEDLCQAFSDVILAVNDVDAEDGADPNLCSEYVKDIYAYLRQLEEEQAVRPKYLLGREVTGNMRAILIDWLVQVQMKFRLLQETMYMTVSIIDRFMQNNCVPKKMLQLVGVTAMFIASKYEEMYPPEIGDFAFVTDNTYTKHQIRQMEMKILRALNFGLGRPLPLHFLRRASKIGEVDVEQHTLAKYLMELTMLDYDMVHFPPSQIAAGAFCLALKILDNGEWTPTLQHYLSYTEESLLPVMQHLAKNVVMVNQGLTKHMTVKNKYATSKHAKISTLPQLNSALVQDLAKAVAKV
Chain of CDK4 (P11802 whole entry, species assumed): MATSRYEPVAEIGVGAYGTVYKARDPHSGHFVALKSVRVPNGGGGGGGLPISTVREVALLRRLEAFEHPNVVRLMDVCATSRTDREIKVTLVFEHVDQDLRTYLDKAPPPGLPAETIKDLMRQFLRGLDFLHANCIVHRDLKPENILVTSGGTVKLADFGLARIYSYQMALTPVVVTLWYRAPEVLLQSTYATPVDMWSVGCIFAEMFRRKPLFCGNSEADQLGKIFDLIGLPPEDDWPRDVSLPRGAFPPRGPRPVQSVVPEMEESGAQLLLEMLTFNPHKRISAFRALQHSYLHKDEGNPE
Chain of CDK4 (P24385 whole entry partner, species assumed): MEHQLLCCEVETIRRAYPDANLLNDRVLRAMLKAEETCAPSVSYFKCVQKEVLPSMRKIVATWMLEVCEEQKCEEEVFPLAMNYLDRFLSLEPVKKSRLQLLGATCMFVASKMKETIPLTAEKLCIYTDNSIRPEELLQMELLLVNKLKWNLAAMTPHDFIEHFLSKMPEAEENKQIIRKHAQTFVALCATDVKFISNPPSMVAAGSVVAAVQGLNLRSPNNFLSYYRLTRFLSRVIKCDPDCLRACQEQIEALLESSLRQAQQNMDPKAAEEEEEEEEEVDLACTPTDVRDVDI
Chain of CDK6 (Q00534 whole entry, canonical isoform): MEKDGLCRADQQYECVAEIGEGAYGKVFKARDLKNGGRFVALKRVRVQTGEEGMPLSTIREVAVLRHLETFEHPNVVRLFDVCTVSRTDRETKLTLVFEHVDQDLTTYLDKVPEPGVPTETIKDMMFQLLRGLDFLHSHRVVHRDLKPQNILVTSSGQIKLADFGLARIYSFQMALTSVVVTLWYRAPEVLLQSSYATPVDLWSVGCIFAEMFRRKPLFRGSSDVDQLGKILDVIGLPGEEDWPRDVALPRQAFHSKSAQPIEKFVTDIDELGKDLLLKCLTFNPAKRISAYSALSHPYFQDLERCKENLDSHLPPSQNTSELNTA
Chain of CDK9 (O60563 whole entry, canonical isoform): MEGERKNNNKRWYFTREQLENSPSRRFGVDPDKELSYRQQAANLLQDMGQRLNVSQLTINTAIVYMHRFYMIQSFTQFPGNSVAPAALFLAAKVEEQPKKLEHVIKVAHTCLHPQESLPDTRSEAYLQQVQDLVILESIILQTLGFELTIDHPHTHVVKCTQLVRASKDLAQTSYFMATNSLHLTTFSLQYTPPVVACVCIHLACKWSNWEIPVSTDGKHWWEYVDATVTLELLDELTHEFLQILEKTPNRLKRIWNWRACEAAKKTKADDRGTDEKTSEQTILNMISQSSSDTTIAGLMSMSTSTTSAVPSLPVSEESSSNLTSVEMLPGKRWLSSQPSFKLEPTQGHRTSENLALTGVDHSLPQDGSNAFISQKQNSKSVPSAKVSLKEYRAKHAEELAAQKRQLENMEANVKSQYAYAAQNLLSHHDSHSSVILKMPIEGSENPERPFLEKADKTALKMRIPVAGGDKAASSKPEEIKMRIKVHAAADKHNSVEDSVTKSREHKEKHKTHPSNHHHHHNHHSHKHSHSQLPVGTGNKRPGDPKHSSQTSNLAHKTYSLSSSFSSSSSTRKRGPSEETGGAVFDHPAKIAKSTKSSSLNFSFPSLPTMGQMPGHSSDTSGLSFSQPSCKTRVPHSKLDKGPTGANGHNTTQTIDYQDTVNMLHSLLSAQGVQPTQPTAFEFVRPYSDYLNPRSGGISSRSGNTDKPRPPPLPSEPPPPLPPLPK
Chain of CDK9 (P50750 whole entry, canonical isoform): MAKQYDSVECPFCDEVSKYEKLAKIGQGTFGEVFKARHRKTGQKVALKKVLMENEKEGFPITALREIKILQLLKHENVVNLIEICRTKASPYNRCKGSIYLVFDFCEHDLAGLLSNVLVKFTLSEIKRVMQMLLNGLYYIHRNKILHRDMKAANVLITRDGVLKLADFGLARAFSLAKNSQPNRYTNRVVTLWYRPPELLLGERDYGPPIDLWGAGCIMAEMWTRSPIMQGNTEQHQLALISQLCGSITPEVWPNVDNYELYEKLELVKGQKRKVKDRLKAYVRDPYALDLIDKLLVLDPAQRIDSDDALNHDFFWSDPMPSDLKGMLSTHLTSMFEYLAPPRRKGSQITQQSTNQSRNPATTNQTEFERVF
Chain of CDK8 (P24863 whole entry, canonical isoform): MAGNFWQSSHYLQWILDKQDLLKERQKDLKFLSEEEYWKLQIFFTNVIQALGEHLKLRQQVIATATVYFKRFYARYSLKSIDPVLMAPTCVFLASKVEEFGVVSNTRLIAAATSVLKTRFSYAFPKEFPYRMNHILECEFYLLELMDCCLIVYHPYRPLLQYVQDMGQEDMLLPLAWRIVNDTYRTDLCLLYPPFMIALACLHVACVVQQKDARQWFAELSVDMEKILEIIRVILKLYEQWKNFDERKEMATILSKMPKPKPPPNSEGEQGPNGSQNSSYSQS
Chain of CDK8 (P49336 whole entry, canonical isoform): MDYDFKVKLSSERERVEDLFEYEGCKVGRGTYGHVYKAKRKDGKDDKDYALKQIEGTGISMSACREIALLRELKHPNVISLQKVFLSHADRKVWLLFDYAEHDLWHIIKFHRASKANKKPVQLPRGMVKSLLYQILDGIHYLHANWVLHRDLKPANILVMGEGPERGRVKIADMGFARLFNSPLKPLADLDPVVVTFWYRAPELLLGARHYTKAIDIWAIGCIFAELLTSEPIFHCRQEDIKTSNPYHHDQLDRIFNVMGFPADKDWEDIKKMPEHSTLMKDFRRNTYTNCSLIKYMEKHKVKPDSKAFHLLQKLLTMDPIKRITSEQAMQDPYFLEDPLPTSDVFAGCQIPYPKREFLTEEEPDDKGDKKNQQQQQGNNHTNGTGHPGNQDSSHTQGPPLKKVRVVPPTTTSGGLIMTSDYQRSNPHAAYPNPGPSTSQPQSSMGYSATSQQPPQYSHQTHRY

CN1CC[C@H](c2c(O)cc(O)c3c(=O)cc(-c4ccccc4Cl)oc23)[C@H](O)C1 [Flavopiridol HCl, Flavopiridol Hydrochloride]
Inhibitory potency CDK1 [1]: +++ | Inhibitory potency CDK2 [2]: +++ | Inhibitory potency CDK3 [3]: + | Inhibitory potency CDK4 [4]: +++ | Inhibitory potency CDK6 [5]: +++ | Inhibitory potency CDK7 [6]: +

CN1CC[C@H](c2c(O)cc(O)c3c(=O)cc(-c4ccccc4Cl)oc23)[C@H](O)C1 [Flavopiridol]
ability of CHI3L1 to stimulate ACE2 mRNA accumulation ([7]; Calu-3 cells transfected with full length CHI3L1 cDNA, flavopiridol 25 nM): potently inhibited | levels of basal ACE2 expression ([7]; Calu-3 cells, empty vector (pcDNA), flavopiridol 25 nM vs vehicle): diminished | basal and CHI3L1-stimulated expression of CTSL [7, 15]: potently decreased | basal and CHI3L1-stimulated expression of FURIN [7, 15]: potently decreased | basal and CHI3L1-stimulated expression of TMPRSS2 [7, 15]: potently decreased | serine phosphorylation of CHI3L1 [8]: blocked | Inhibitory potency CDK1 [1]: +++ | Inhibitory potency CDK2 [2]: +++ | Inhibitory potency CDK4 [4]: +++ | Inhibitory potency CDK6 [5]: ++ | Inhibitory potency CDK7 [6]: +

CC(C)c1c2cc(-c3ccnc(NC4CCC(NC5CCOCC5)CC4)n3)ccc2nn1C (stereo not drawn) [LY2857785]
Inhibitory potency CDK7 [6]: + | Inhibitory potency CDK8 [9]: +++ | Inhibitory potency CDK9 [10]: +++

rhCHI3L1: recombinant human CHI3L1 from a commercial source (R&D Inc.) or generated at Brown University
levels of mRNA encoding ACE2 ([11]; rhCHI3L1 0, 250 or 500 ng/mL): significantly upregulated | levels of mRNA encoding CTSL ([11]; rhCHI3L1 0, 250 or 500 ng/mL): significantly upregulated | levels of mRNA encoding TMPRSS2 ([11]; rhCHI3L1 0, 250 or 500 ng/mL): significantly upregulated | levels of mRNA encoding ACE2 ([11]; rhCHI3L1 500 ng/mL, vs vehicle): significantly upregulated | levels of mRNA encoding cathepsin L (CTSL) ([11]; rhCHI3L1 500 ng/mL, vs vehicle): significantly upregulated | levels of mRNA encoding ACE2 [12]: significantly upregulated | levels of mRNA encoding CTSL [12]: significantly upregulated | levels of mRNA encoding TMPRSS2 [12]: significantly upregulated | levels of mRNA encoding ACE2 [13]: significantly upregulated | levels of mRNA encoding CTSL [13]: significantly upregulated | levels of mRNA encoding FURIN [13]: significantly upregulated | levels of mRNA encoding TMPRSS2 [13]: significantly upregulated | cellular integration of S proteins (GFP expression) [14]: stimulated
